According to the kinase profiling compilation of Christmann-Franck et al. (2016):

What was measured:
MAP3K12 (human) = MAP3K12 (human) (UniProt Q12852)
ADCK3 (human) = ADCK3 (human) (UniProt Q8NI60); experiment: KINOMEscan competition binding; details: compound 10.0 µM
AKT1 (human) = AKT1 (human) (UniProt P31749); experiment: KINOMEscan competition binding; details: compound 10.0 µM
AKT2 (human) = AKT2 (human) (UniProt P31751); experiment: KINOMEscan competition binding; details: compound 10.0 µM
BRAF (human) = BRAF (human) (UniProt P15056); experiment: KINOMEscan competition binding; details: compound 10.0 µM
BTK (human) = BTK (human) (UniProt Q06187); experiment: KINOMEscan competition binding; details: compound 10.0 µM
CAMK4 (human) = CAMK4 (human) (UniProt Q16566); experiment: KINOMEscan competition binding; details: compound 10.0 µM
CASK (human) = CASK (human) (UniProt O14936); experiment: KINOMEscan competition binding; details: compound 10.0 µM
CDK11B (human) = CDK11B (human) (UniProt P21127); experiment: KINOMEscan competition binding; details: compound 10.0 µM
CDK16 (human) = CDK16 (human) (UniProt Q00536); experiment: KINOMEscan competition binding; details: compound 10.0 µM
CLK3 (human) = CLK3 (human) (UniProt P49761); experiment: KINOMEscan competition binding; details: compound 10.0 µM
ERN1 (human) = ERN1 (human) (UniProt O75460); experiment: KINOMEscan competition binding; details: compound 10.0 µM
GRK1 (human) = GRK1 (human) (UniProt Q15835); experiment: KINOMEscan competition binding; details: compound 10.0 µM
GSK3B (human) = GSK3B (human) (UniProt P49841); experiment: KINOMEscan competition binding; details: compound 10.0 µM
HIPK1 (human) = HIPK1 (human) (UniProt Q86Z02); experiment: KINOMEscan competition binding; details: compound 10.0 µM
IKBKB (human) = IKBKB (human) (UniProt O14920); experiment: KINOMEscan competition binding; details: compound 10.0 µM
[1] = test system: KIT (human), P10721 [D816V]; experiment: KINOMEscan competition binding; details: compound 10.0 µM
[2] = test system: KIT (human), P10721 [V559D/T670I]; experiment: KINOMEscan competition binding; details: compound 10.0 µM
MAP2K2 (human) = MAP2K2 (human) (UniProt P36507); experiment: KINOMEscan competition binding; details: compound 10.0 µM
MAP3K7 (human) = MAP3K7 (human) (UniProt O43318); experiment: KINOMEscan competition binding; details: compound 10.0 µM
MAPK14 (human) = MAPK14 (human) (UniProt Q16539); experiment: KINOMEscan competition binding; details: compound 10.0 µM
MARK3 (human) = MARK3 (human) (UniProt P27448); experiment: KINOMEscan competition binding; details: compound 10.0 µM
NEK6 (human) = NEK6 (human) (UniProt Q9HC98); experiment: KINOMEscan competition binding; details: compound 10.0 µM
NTRK1 (human) = NTRK1 (human) (UniProt P04629); experiment: KINOMEscan competition binding; details: compound 10.0 µM
PAK1 (human) = PAK1 (human) (UniProt Q13153); experiment: KINOMEscan competition binding; details: compound 10.0 µM
PDGFRA (human) = PDGFRA (human) (UniProt P16234); experiment: KINOMEscan competition binding; details: compound 10.0 µM
PDGFRB (human) = PDGFRB (human) (UniProt P09619); experiment: KINOMEscan competition binding; details: compound 10.0 µM
PDPK1 (human) = PDPK1 (human) (UniProt O15530); experiment: KINOMEscan competition binding; details: compound 10.0 µM
PIK3CA (human) = PIK3CA (human) (UniProt P42336); experiment: KINOMEscan competition binding; details: compound 10.0 µM
PIM1 (human) = PIM1 (human) (UniProt P11309); experiment: KINOMEscan competition binding; details: compound 10.0 µM
PIM3 (human) = PIM3 (human) (UniProt Q86V86); experiment: KINOMEscan competition binding; details: compound 10.0 µM
PLK1 (human) = PLK1 (human) (UniProt P53350); experiment: KINOMEscan competition binding; details: compound 10.0 µM
PRKCE (human) = PRKCE (human) (UniProt Q02156); experiment: KINOMEscan competition binding; details: compound 10.0 µM
PTK2 (human) = PTK2 (human) (UniProt Q05397); experiment: KINOMEscan competition binding; details: compound 10.0 µM
RAF1 (human) = RAF1 (human) (UniProt P04049); experiment: KINOMEscan competition binding; details: compound 10.0 µM
ROCK2 (human) = ROCK2 (human) (UniProt O75116); experiment: KINOMEscan competition binding; details: compound 10.0 µM
RPS6KA3 KD1 (human) = RPS6KA3 KD1 (human) (UniProt P51812); experiment: KINOMEscan competition binding; details: compound 10.0 µM
STK11 (human) = STK11 (human) (UniProt Q15831); experiment: KINOMEscan competition binding; details: compound 10.0 µM
STK25 (human) = STK25 (human) (UniProt O00506); experiment: KINOMEscan competition binding; details: compound 10.0 µM
STK32C (human) = STK32C (human) (UniProt Q86UX6); experiment: KINOMEscan competition binding; details: compound 10.0 µM
[3] = target: TYK2 JH1 catalytic (human) (UniProt P29597); experiment: KINOMEscan competition binding; details: compound 10.0 µM

Sequence of PIK3CA (human) (P42336 whole entry, looked up): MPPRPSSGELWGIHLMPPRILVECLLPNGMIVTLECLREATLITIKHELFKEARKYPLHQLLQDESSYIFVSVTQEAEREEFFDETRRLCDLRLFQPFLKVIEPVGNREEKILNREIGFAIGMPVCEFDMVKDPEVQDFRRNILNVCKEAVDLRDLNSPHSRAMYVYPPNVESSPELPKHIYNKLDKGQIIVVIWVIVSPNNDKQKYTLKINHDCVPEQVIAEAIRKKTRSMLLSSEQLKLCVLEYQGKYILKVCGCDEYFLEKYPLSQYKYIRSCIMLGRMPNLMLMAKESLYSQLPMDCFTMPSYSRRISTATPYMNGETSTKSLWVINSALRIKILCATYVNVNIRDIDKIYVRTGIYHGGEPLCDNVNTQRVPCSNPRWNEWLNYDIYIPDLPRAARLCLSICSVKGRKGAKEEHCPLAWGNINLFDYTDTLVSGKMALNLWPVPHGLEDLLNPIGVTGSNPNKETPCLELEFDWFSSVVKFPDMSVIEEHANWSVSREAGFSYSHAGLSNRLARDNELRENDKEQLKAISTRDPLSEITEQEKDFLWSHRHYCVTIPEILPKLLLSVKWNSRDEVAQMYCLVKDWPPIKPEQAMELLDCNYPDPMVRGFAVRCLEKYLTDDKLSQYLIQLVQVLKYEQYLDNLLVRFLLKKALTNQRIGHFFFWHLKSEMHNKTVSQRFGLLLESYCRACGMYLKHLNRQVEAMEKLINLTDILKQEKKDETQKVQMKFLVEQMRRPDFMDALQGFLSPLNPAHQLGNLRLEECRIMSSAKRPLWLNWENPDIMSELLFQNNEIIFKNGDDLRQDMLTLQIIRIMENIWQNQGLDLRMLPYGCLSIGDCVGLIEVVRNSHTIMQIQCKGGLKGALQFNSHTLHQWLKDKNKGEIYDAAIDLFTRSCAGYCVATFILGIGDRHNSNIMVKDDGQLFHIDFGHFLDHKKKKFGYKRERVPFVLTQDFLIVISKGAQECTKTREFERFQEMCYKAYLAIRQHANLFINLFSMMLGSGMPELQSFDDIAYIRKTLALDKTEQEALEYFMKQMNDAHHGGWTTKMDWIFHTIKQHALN
Sequence of GRK1 (human) (Q15835 whole entry, looked up): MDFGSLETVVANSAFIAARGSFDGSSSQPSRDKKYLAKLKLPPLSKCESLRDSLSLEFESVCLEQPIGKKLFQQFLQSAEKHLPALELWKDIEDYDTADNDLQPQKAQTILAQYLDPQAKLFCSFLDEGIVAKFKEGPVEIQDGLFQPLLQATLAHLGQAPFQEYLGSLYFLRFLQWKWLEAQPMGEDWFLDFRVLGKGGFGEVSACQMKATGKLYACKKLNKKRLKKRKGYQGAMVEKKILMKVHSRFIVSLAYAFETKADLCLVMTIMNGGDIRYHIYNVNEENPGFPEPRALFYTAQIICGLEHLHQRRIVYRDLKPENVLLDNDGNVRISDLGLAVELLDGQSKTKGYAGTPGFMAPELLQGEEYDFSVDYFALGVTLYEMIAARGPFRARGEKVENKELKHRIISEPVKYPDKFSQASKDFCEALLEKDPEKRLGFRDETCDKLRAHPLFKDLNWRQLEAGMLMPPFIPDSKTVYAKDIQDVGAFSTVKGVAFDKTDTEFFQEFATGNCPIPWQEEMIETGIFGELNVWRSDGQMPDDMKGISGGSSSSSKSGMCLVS
Sequence of CLK3 (human) (P49761 whole entry, looked up): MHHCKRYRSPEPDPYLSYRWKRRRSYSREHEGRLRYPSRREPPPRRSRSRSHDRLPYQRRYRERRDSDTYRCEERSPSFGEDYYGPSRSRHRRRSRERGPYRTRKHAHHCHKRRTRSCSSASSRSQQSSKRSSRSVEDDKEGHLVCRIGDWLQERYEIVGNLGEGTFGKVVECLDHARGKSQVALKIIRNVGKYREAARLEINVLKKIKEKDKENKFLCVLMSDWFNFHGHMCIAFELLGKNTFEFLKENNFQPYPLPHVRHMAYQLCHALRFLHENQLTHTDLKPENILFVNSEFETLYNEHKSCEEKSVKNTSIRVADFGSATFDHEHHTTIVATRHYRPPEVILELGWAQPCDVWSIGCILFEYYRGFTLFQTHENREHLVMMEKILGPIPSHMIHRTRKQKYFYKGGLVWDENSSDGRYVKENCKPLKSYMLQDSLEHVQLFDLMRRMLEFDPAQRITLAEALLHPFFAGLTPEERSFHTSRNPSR
Sequence of PLK1 (human) (P53350 whole entry, looked up): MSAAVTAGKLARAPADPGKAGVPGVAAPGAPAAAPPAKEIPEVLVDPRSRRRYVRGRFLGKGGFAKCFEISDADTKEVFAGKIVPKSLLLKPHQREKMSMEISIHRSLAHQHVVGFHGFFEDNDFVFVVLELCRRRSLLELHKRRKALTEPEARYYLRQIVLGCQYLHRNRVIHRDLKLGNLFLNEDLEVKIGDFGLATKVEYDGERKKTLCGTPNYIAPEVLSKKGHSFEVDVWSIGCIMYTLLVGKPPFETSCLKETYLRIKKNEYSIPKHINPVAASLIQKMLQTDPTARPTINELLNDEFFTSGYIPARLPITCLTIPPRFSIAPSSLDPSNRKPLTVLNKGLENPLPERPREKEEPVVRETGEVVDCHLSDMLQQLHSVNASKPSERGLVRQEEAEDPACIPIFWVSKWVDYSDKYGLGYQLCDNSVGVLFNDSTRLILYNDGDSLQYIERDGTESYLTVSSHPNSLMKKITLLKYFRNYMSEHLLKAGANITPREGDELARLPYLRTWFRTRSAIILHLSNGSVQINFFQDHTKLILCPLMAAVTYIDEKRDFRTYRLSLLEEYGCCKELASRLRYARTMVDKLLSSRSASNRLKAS
Sequence of MAP2K2 (human) (P36507 whole entry, looked up): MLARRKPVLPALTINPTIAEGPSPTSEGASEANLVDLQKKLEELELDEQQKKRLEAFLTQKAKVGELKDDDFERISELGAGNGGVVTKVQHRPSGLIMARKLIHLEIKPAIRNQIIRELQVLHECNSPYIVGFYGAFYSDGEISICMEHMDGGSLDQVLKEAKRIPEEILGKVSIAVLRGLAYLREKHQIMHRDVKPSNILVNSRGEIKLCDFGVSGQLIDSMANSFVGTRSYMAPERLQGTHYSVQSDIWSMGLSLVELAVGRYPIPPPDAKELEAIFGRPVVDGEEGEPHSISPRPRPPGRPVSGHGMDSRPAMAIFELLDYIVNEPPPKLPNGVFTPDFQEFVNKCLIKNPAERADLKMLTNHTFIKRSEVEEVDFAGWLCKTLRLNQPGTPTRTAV
Sequence of BRAF (human) (P15056 whole entry, looked up): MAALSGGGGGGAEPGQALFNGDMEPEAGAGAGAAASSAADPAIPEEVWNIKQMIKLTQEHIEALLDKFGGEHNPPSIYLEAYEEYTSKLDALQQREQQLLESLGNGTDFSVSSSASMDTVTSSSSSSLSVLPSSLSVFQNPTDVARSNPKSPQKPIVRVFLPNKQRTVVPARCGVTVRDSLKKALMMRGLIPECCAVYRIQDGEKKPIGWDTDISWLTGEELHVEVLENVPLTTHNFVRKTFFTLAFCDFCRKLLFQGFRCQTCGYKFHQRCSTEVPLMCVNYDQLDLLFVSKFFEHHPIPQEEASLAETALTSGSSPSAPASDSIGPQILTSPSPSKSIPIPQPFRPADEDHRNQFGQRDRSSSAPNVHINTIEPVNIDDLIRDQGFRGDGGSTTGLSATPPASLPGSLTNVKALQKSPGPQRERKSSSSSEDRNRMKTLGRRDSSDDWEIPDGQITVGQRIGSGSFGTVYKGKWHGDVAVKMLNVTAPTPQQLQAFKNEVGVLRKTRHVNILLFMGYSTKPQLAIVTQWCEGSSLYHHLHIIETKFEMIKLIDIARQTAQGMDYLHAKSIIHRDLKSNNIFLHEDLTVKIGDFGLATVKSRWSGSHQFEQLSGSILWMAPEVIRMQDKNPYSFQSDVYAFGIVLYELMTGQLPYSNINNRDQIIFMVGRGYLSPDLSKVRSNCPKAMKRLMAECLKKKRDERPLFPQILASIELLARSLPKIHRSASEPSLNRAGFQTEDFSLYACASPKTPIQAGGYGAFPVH
Sequence of IKBKB (human) (O14920 whole entry, looked up): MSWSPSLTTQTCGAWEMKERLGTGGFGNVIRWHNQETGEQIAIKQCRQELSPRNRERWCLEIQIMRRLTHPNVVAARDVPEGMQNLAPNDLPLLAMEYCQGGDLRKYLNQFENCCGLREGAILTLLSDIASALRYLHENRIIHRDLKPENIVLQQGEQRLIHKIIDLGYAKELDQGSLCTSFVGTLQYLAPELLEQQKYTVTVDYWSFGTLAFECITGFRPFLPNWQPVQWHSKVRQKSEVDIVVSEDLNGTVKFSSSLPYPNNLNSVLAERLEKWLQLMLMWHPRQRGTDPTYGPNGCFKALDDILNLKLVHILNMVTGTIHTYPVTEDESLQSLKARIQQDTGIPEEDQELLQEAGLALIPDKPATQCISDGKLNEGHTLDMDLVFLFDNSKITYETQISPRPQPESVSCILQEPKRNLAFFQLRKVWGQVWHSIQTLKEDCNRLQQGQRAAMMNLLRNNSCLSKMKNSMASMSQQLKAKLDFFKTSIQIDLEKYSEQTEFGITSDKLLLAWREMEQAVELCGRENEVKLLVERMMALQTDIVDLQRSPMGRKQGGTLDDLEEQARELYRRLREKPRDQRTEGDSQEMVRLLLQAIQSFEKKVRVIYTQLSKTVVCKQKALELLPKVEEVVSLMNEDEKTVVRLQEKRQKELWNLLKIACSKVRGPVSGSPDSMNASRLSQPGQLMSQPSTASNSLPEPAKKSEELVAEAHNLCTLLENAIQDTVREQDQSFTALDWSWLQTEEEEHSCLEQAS
Sequence of PIM1 (human) (P11309 whole entry, looked up): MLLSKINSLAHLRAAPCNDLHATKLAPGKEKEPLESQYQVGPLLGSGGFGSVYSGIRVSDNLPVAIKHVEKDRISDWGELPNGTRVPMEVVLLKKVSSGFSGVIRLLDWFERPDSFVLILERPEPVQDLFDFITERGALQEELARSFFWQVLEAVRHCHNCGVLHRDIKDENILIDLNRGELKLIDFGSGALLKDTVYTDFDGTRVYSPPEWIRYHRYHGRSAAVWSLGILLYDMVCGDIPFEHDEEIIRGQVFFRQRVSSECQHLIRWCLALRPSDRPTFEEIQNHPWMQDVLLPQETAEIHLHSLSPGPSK

O=C(Nc1ccc(Oc2ncnc3[nH]ncc23)cc1)Nc1ccc(Cl)c(C(F)(F)F)c1
IC50 (MAP3K12 (human)): > 10 µM | kinase still bound, per cent of control (ADCK3 (human)): 100% | kinase still bound, per cent of control (AKT1 (human)): 100% | kinase still bound, per cent of control (AKT2 (human)): 96% | kinase still bound, per cent of control (BRAF (human)): 3.8% | kinase still bound, per cent of control (BTK (human)): 96% | kinase still bound, per cent of control (CAMK4 (human)): 100% | kinase still bound, per cent of control (CASK (human)): 20% | kinase still bound, per cent of control (CDK11B (human)): 69% | kinase still bound, per cent of control (CDK16 (human)): 98% | kinase still bound, per cent of control (CLK3 (human)): 65% | kinase still bound, per cent of control (ERN1 (human)): 100% | kinase still bound, per cent of control (GRK1 (human)): 89% | kinase still bound, per cent of control (GSK3B (human)): 99% | kinase still bound, per cent of control (HIPK1 (human)): 52% | kinase still bound, per cent of control (IKBKB (human)): 91% | kinase still bound, per cent of control [1]: 1.7% | kinase still bound, per cent of control [2]: 0.15% | kinase still bound, per cent of control (MAP2K2 (human)): 60% | kinase still bound, per cent of control (MAP3K7 (human)): 7.2% | kinase still bound, per cent of control (MAPK14 (human)): 0% | kinase still bound, per cent of control (MARK3 (human)): 75% | kinase still bound, per cent of control (NEK6 (human)): 100% | kinase still bound, per cent of control (NTRK1 (human)): 41% | kinase still bound, per cent of control (PAK1 (human)): 86% | kinase still bound, per cent of control (PDGFRA (human)): 0.4% | kinase still bound, per cent of control (PDGFRB (human)): 0% | kinase still bound, per cent of control (PDPK1 (human)): 89% | kinase still bound, per cent of control (PIK3CA (human)): 100% | kinase still bound, per cent of control (PIM1 (human)): 90% | kinase still bound, per cent of control (PIM3 (human)): 94% | kinase still bound, per cent of control (PLK1 (human)): 100% | kinase still bound, per cent of control (PRKCE (human)): 86% | kinase still bound, per cent of control (PTK2 (human)): 94% | kinase still bound, per cent of control (RAF1 (human)): 1% | kinase still bound, per cent of control (ROCK2 (human)): 63% | kinase still bound, per cent of control (RPS6KA3 KD1 (human)): 100% | kinase still bound, per cent of control (STK11 (human)): 97% | kinase still bound, per cent of control (STK25 (human)): 79% | kinase still bound, per cent of control (STK32C (human)): 96% | kinase still bound, per cent of control [3]: 88%
